The source of these data is patent publication US12559529B2, “NPY2 receptor agonists” (Boehringer Ingelheim International GmbH, priority 2019, dated 2026).

In this assay the target is T1, Human Neuropeptide Y2 Receptor (Homo sapiens, UniProt P49146).
T1 construct: purchased CHEMICON HTS066M
T1 sequence (P49146 1-381): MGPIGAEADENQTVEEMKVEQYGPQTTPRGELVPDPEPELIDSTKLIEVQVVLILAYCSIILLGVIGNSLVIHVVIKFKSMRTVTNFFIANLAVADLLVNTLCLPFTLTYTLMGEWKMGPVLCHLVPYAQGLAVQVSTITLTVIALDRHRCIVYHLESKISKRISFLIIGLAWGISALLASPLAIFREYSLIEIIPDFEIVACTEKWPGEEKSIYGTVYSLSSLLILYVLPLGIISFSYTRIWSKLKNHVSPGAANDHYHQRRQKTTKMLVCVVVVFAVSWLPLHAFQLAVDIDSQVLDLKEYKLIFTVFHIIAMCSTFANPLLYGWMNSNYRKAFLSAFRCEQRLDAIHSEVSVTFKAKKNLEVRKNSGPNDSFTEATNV
Kind of assay: Radioligand binding competition assay (RLB). Conditions: Table 3; human 125I-PYY (1-36) 0.02 nM, Y2 receptor membranes; read-out: Ki. In a few lines:
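Membranes from cells expressing human Y2 receptor (0.5 μg protein/well) were incubated with radioligand and serially diluted peptides in 50 mM HEPES, 5 mM MgCl2, 1 mM CaCl2, 0.2% ovalbumin, pH 7.4, for 2 h at room temperature with shaking. Bound radioactivity was collected by filtration and counted; IC50 from sigmoidal nonlinear regression.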

*1 amine or outer side, *2 acyl side, *3 side chain or, on linkers, in order; H or OH if unused. Where a SMILES comes first, the peptide text is derived from it. Side-chain parts run from the residue outwards. The star is where a group is joined. C18 diacid = O=C(O)CCCCCCCCCCCCCCCCC(=O)*; γGlu = O=C(O)[C@H](CCC(=O)[*:2])N[*:1]; Isovaleryl = CC(C)CC(=O)*; AEEA = NCCOCCOCC(=O)O

As for `CC(C)CC(=O)N[C@@H](C)C(=O)N1CCC[C@H]1C(=O)N[C@@H](CCC(=O)O)C(=O)N[C@@H](CCCCNC(=O)COCCOCCNC(=O)COCCOCCNC(=O)CC[C@H](NC(=O)CCCCCCCCCCCCCCCCC(=O)O)C(=O)O)C(=O)N1CCC[C@H]1C(=O)N[C@@H](CCC(=O)O)C(=O)N[C@@H](CCC(=O)O)C(=O)N[C@@H](CC(=O)O)C(=O)N[C@@H](CO)C(=O)N[C@@H](CO)C(=O)N1CCC[C@H]1C(=O)N[C@@H](CCC(=O)O)C(=O)N[C@@H](CCC(=O)O)C(=O)N[C@@H](CC(C)C)C(=O)N[C@@H](CCC(N)=O)C(=O)N[C@@H](CCCNC(=N)N)C(=O)N[C@@H](Cc1ccc(O)cc1)C(=O)N[C@@H](Cc1ccc(O)cc1)C(=O)N[C@H](C(=O)N[C@@H](C)C(=O)N[C@@H](CC(C)C)C(=O)N[C@@H](CCCNC(=N)N)C(=O)N[C@@H](Cc1c[nH]cn1)C(=O)N[C@@H](Cc1ccc(O)cc1)C(=O)N[C@@H](Cc1ccc(O)cc1)C(=O)N[C@@H](CC(N)=O)C(=O)N[C@@H](Cc1c[nH]c2ccccc12)C(=O)N[C@@H](CC(C)C)C(=O)N[C@H](C(=O)N[C@@H](CCCNC(=N)N)C(=O)N[C@@H](CCC(N)=O)C(=O)N[C@@H](CCCNC(=N)N)C(=O)N[C@@H](Cc1ccc(O)cc1)C(N)=O)[C@@H](C)O)C(C)C` [Compound 218, N{alpha-4}-(3-methylbutanoyl)-N{epsilon-7}-[2-(2-{2-[2-(2-{2-[(4S)-4-carboxy-4-(17-carboxyheptadecanamido)butanamido]ethoxy}ethoxy)acetamido]ethoxy}ethoxy)acetamido]-[4A,7K,9E,12S,18Q,22V,23A,28Y,30W,31L]hPYY (4-36)], the Ki is 1.49 nM.

`CC(C)CC(=O)N[C@@H](C)C(=O)N1CCC[C@H]1C(=O)N[C@@H](CCC(=O)O)C(=O)N[C@@H](CCCCNC(=O)COCCOCCNC(=O)COCCOCCNC(=O)CC[C@H](NC(=O)CCCCCCCCCCCCCCCCC(=O)O)C(=O)O)C(=O)N1CCC[C@H]1C(=O)N[C@@H](CCC(=O)O)C(=O)N[C@@H](CCC(=O)O)C(=O)N[C@@H](CCC(=O)O)C(=O)N[C@@H](C)C(=O)N[C@@H](C)C(=O)N1CCC[C@H]1C(=O)N[C@@H](CCC(=O)O)C(=O)N[C@@H](CCC(=O)O)C(=O)N[C@@H](CC(C)C)C(=O)N[C@@H](CCC(N)=O)C(=O)N[C@@H](CCCNC(=N)N)C(=O)N[C@@H](Cc1ccc(O)cc1)C(=O)N[C@@H](Cc1ccc(O)cc1)C(=O)N[C@H](C(=O)N[C@@H](CO)C(=O)N[C@@H](CC(C)C)C(=O)N[C@@H](CCCNC(=N)N)C(=O)N[C@@H](Cc1c[nH]cn1)C(=O)N[C@@H](Cc1ccc(O)cc1)C(=O)N[C@@H](Cc1ccc(O)cc1)C(=O)N[C@@H](CC(N)=O)C(=O)N[C@@H](Cc1c[nH]c2ccccc12)C(=O)N[C@@H](CC(C)C)C(=O)N[C@H](C(=O)N[C@@H](CCCNC(=N)N)C(=O)N[C@@H](CCC(N)=O)C(=O)N[C@@H](CCCNC(=N)N)C(=O)N[C@@H](Cc1ccc(O)cc1)C(N)=O)[C@@H](C)O)C(C)C` [Compound 219, N{alpha-4}-(3-methylbutanoyl)-N{epsilon-7}-[2-(2-{2-[2-(2-{2-[(4S)-4-carboxy-4-(17-carboxyheptadecanamido)butanamido]ethoxy}ethoxy)acetamido]ethoxy}ethoxy)acetamido]-[4A,7K,9E,11E,13A,18Q,22V,28Y,30W,31L]hPYY (4-36)]: the Ki stood at 7.6 nM.

For the molecule `CC(C)CC(=O)N[C@@H](C)C(=O)N1CCC[C@H]1C(=O)N[C@@H](CCC(=O)O)C(=O)N[C@@H](CCCCNC(=O)COCCOCCNC(=O)COCCOCCNC(=O)CC[C@H](NC(=O)CCCCCCCCCCCCCCCCC(=O)O)C(=O)O)C(=O)N1CCC[C@H]1C(=O)N[C@@H](CCC(=O)O)C(=O)N[C@@H](CCC(=O)O)C(=O)N[C@@H](C)C(=O)N[C@@H](C)C(=O)N[C@@H](CO)C(=O)N[C@@H](C)C(=O)N[C@@H](CCC(=O)O)C(=O)N[C@@H](CCC(=O)O)C(=O)N[C@@H](CC(C)C)C(=O)N[C@@H](CCC(N)=O)C(=O)N[C@@H](CCCNC(=N)N)C(=O)N[C@@H](Cc1ccc(O)cc1)C(=O)N[C@@H](Cc1ccc(O)cc1)C(=O)N[C@H](C(=O)N[C@@H](CO)C(=O)N[C@@H](CC(C)C)C(=O)N[C@@H](CCCNC(=N)N)C(=O)N[C@@H](Cc1c[nH]cn1)C(=O)N[C@@H](Cc1ccc(O)cc1)C(=O)N[C@@H](Cc1ccc(O)cc1)C(=O)N[C@@H](CC(N)=O)C(=O)N[C@@H](Cc1c[nH]c2ccccc12)C(=O)N[C@@H](CC(C)C)C(=O)N[C@H](C(=O)N[C@@H](CCCNC(=N)N)C(=O)N[C@@H](CCC(N)=O)C(=O)N[C@@H](CCCNC(=N)N)C(=O)N[C@@H](Cc1ccc(O)cc1)C(N)=O)[C@@H](C)O)C(C)C` [Compound 220, N{alpha-4}-(3-methylbutanoyl)-N{epsilon-7}-[2-(2-{2-[2-(2-{2-[(4S)-4-carboxy-4-(17-carboxyheptadecanamido)butanamido]ethoxy}ethoxy)acetamido]ethoxy}ethoxy)acetamido]-[4A,7K,9E,11A,14A,18Q,22V,28Y,30W,31L]hPYY (4-36)], the Ki was 2.99 nM.

For the molecule `CC(C)CC(=O)N[C@@H](C)C(=O)N1CCC[C@H]1C(=O)N[C@@H](CCC(=O)O)C(=O)N[C@@H](CCCCNC(=O)COCCOCCNC(=O)COCCOCCNC(=O)CC[C@H](NC(=O)CCCCCCCCCCCCCCCCC(=O)O)C(=O)O)C(=O)N1CCC[C@H]1C(=O)N[C@@H](CCC(=O)O)C(=O)N[C@@H](CCC(=O)O)C(=O)N[C@@H](C)C(=O)N[C@@H](C)C(=O)N[C@@H](CCC(=O)O)C(=O)N1CCC[C@H]1C(=O)N[C@@H](CCC(=O)O)C(=O)N[C@@H](CCC(=O)O)C(=O)N[C@@H](CC(C)C)C(=O)N[C@@H](CCC(N)=O)C(=O)N[C@@H](CCCNC(=N)N)C(=O)N[C@@H](Cc1ccc(O)cc1)C(=O)N[C@@H](Cc1ccc(O)cc1)C(=O)N[C@H](C(=O)N[C@@H](CO)C(=O)N[C@@H](CC(C)C)C(=O)N[C@@H](CCCNC(=N)N)C(=O)N[C@@H](Cc1c[nH]cn1)C(=O)N[C@@H](Cc1ccc(O)cc1)C(=O)N[C@@H](Cc1ccc(O)cc1)C(=O)N[C@@H](CC(N)=O)C(=O)N[C@@H](Cc1c[nH]c2ccccc12)C(=O)N[C@@H](CC(C)C)C(=O)N[C@H](C(=O)N[C@@H](CCCNC(=N)N)C(=O)N[C@@H](CCC(N)=O)C(=O)N[C@@H](CCCNC(=N)N)C(=O)N[C@@H](Cc1ccc(O)cc1)C(N)=O)[C@@H](C)O)C(C)C` [Compound 223, N{alpha-4}-(3-methylbutanoyl)-N{epsilon-7}-[2-(2-{2-[2-(2-{2-[(4S)-4-carboxy-4-(17-carboxyheptadecanamido)butanamido]ethoxy}ethoxy)acetamido]ethoxy}ethoxy)acetamido]-[4A,7K,9E,11A,13E,18Q,22V,28Y,30W,31L]hPYY (4-36)], the inhibition constant (Ki) was found to be 4.77 nM.

Consider `CC(C)CC(=O)N[C@@H](C)C(=O)N1CCC[C@H]1C(=O)N[C@@H](CCC(=O)O)C(=O)N[C@@H](CCCCNC(=O)COCCOCCNC(=O)COCCOCCNC(=O)CC[C@H](NC(=O)CCCCCCCCCCCCCCCCC(=O)O)C(=O)O)C(=O)N1CCC[C@H]1C(=O)NCC(=O)N[C@@H](CCC(=O)O)C(=O)N[C@@H](CCC(=O)O)C(=O)N[C@@H](C)C(=O)N[C@@H](CO)C(=O)N1CCC[C@H]1C(=O)N[C@@H](CCC(=O)O)C(=O)N[C@@H](CCC(=O)O)C(=O)N[C@@H](CC(C)C)C(=O)N[C@@H](CCC(=O)O)C(=O)N[C@@H](CCC(N)=O)C(=O)N[C@@H](Cc1ccc(O)cc1)C(=O)N[C@@H](Cc1ccc(O)cc1)C(=O)N[C@H](C(=O)N[C@@H](CO)C(=O)N[C@@H](CC(C)C)C(=O)N[C@@H](CCCNC(=N)N)C(=O)N[C@@H](Cc1c[nH]cn1)C(=O)N[C@@H](Cc1ccc(O)cc1)C(=O)N[C@@H](Cc1ccc(O)cc1)C(=O)N[C@@H](CC(N)=O)C(=O)N[C@@H](Cc1c[nH]c2ccccc12)C(=O)N[C@@H](CC(C)C)C(=O)N[C@H](C(=O)N[C@@H](CCCNC(=N)N)C(=O)N[C@@H](CCC(N)=O)C(=O)N[C@@H](CCCNC(=N)N)C(=O)N[C@@H](Cc1ccc(O)cc1)C(N)=O)[C@@H](C)O)C(C)C` [Compound 224, N{alpha-4}-(3-methylbutanoyl)-N{epsilon-7}-[2-(2-{2-[2-(2-{2-[(4S)-4-carboxy-4-(17-carboxyheptadecanamido)butanamido]ethoxy}ethoxy)acetamido]ethoxy}ethoxy)acetamido]-[4A,7K,11E,18E,19Q,22V,28Y,30W,31L]hPYY (4-36)] (Isovaleryl-APEK([AEEA-AEEA-γGlu-C18 diacid])PGEEASPEELEQYYVSLRHYYNWLTRQRY-NH2), for which the Ki was 4.64 nM.

A word on the Ki: it is a dissociation constant, usually derived from enzyme kinetics or from competition with a known ligand.
